# The supplement of paper PMC11997997
# Legend:
# [1] = test system: murine bone marrow-derived macrophages; assay: area under cytotoxicity dose-response curve (AUC (% cytotoxicity x dose, relative)); higher = more cytotoxic; details: duration: 6 days; dose range: 0.13-80 uM, 8 points
# Summary of the method: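 Cytotoxicity is expressed as the area under the dose–response curve from GraphPad Prism version 10. To obtain it, primary murine bone marrow-derived macrophages were incubated for 6 days at 37 °C in 5% CO2 across final concentrations of 80–0.13 μM. Viability came from CellTiter-Glo luminescence, and percent cytotoxicity was normalised to vehicle and positive control wells.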
# [2] = test system: Mycobacterium tuberculosis CDC1551 (intracellular, in murine BMDM); assay: area under intracellular growth-inhibition dose-response curve (AUC (% inhibition x dose, relative)); higher = more potent; details: duration: 6 days; dose range: 0.13-80 uM, 8 points
# Summary of the method: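 In 384-well opaque plates, primary murine bone marrow-derived macrophages were infected with luciferase-expressing M. tuberculosis CDC1551 (multiplicity of infection 1, 1 h) 24 h after seeding, then treated for 6 days across final concentrations of 80–0.13 μM. Growth was measured by Bright-Glo luciferin assay, normalised to a reference drug control and the lowest-concentration wells. The reported value is the area under the growth-inhibition dose–response curve from GraphPad Prism.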
SMILES,area under cytotoxicity dose-response curve [1],area under intracellular growth-inhibition dose-response curve [2]
NC(=S)N/N=C/c1ccc(-c2cc(Cl)ccc2Cl)o1,33.2,247
COc1cccc(NC(=O)NC2CCCCCCC2)c1,103,162
NC(=O)C[C@H](NC(=O)c1ccc(Cl)cc1)C(=O)OCc1ccccc1,< 0,16.5
CCCc1ccc(C(=O)CCC(=O)NNC(=O)c2ccncc2)cc1,9.69,270
O=C(NNC(=O)c1cc2ccccc2o1)c1ccncc1,11.1,135
COc1ccc2c(c1)c(CC(=O)OCC(=O)O)c(C)n2C(=O)c1ccc(Cl)cc1,47.6,117
Cc1cccc(Cn2ccc(NC(=O)c3ccc4c(c3)OCO4)n2)c1,85.5,133
CCC(=O)NC(=S)Nc1ccc(NC(=S)NC(=O)c2ccccc2)cc1,48.6,263
CCC(CO)NCCNC(CC)CO (stereo unspecified),88.1,154
COc1ccc(C2=NCCn3c2c2ccc(C(F)(F)F)cc2[n+]3[O-])cc1,108,95.2
Cc1nc(N)nc(N)c1/C=C/C(C)(C)c1ccc(Cl)cc1.Cl,5.71,230
COc1ccc(/C=N/NC(=O)c2ccncc2)c(OC)c1,28,227
COc1ccc(Cn2c(SCc3ccccc3C)nc3cc(OC)c(OC)cc3c2=N)cc1,2.96,172
CC(C)(O)C(=O)Nc1ccc([N+](=O)[O-])c(C(F)(F)F)c1,82.8,35.7
N#CCc1ccc(NC(=O)/C=C/c2ccc([N+](=O)[O-])o2)cc1,124,35
O=C(N/N=C/c1cccc2ccccc12)c1ccncc1,67.8,262
O=C(NCc1ccco1)c1csc2c1CCCCC2,55.5,212
C[n+]1c(-c2ccccc2)c2cc(N)ccc2c2ccc(N)cc21.[Br-],30.1,59.8
C/C(Cn1cnc([N+](=O)[O-])n1)=N\NC(=O)c1ccncc1,39.4,249
Cc1ccc(C2=NCCn3c2c2ccc(C(F)(F)F)cc2[n+]3[O-])cc1,< 0,161
O=C(CCc1ccccc1)NC1C2CC3CC(C2)CC1C3 (stereo unspecified),3.6,194

SMILES,area under cytotoxicity dose-response curve [1],area under intracellular growth-inhibition dose-response curve [2]
CCN(CC)c1ccc(NC(=S)Nc2ccc(F)cc2)cc1,90.6,106
Cc1nc(SCC(=O)NCc2ccc3c(c2)OCO3)nc(C)c1C,< 0,54.6
COc1ccc(CNc2ncc(-c3ccc(Br)cc3)n2C)cc1OC.O=C(O)C(=O)O,42.6,113
CN(C)CCSc1nc2cc(S(=O)(=O)N3CCCCC3)ccc2o1,11.5,1.9
CC(=O)Nc1sc(N/N=C\c2ccc(O)cc2)nc1-c1cccs1,155,194
O=[N+]([O-])c1ccc(/C=N/Nc2nc(N3CCCCC3)nc(N3CCCCC3)n2)o1,< 0,226
CC1CCC(NC(=O)c2cc3c(s2)CCCC3)CC1 (stereo unspecified),< 0,253
O=C1CN(C(=O)COC(=O)c2c(F)cccc2Cl)c2ccccc2N1,< 0,148
CCOc1ccc(CCNC(=O)c2ccc3c(=O)[nH]c4c(C(=O)NC(C)C)sc(=S)n4c3c2)cc1,10.1,225
NC(=S)N/N=C/c1ccc(-n2nncc2-c2ccc(Cl)cc2)cc1,47.7,216
O=C(C=Cc1cccc(Cl)c1)c1ccccc1,6.7,252
O=C(c1ccc2ccccc2c1)N1CCCC1,32.9,222
CC(C)[C@@H]1CC[C@@H](C)C[C@H]1OC(=O)C[n+]1cc(-c2ccc(Cl)cc2)n2c1CCCCC2.[Cl-],101,8.38
COCCNc1c(-c2ccc(OC)cc2)nc2ccc(Cl)cn12,32.9,87.8
Nc1ccc(S(=O)(=O)Nc2cnc3ccccc3n2)cc1,< 0,156
On1c(-c2ccc(Cl)cc2)nc2ccccc21,124,63.1
CN(C)S(=O)(=O)c1ccc(C(=O)OCC(=O)NC(=O)NC2CCCC2)cc1,< 0,165
CC1CCC(C(C)C)C(OC(=O)Cn2c(-c3ccc(Br)cc3)[n+](C)c3ccccc32)C1.[Cl-] (stereo unspecified),147,128
Cc1c(Cl)cccc1NC(=S)NCC(O)c1ccccc1 (stereo unspecified),81.9,158
COc1c(N2C[C@@H]3CCCN[C@@H]3C2)c(F)cc2c(=O)c(C(=O)O)cn(C3CC3)c12.Cl,62.8,269
CCOc1ncnc2c1oc1nc(CC(C)C)c3c(c12)CC(C)(C)OC3,63.6,115

SMILES,area under cytotoxicity dose-response curve [1],area under intracellular growth-inhibition dose-response curve [2]
CC(C)OC(=O)c1c2c(n3ccccc13)C(=O)c1ccccc1C2=O,36.2,209
CCOC(=O)C(CC)(CC)/C(C)=N/NC(=O)CC#N,20,19.5
C/C=C/C=N\NC(=O)c1ccncc1,9.36,259
O=C(NCc1cccs1)c1ccc(Cl)s1,2.8,212
CCCOc1ccccc1OCC(=O)N1CCN(S(=O)(=O)c2ccc(Cl)cc2)CC1,126,48.8
O=C(NC1CCCC1)c1ccc(Br)s1,54.8,220
C/C(=N\NC(N)=S)c1ccc(Cl)s1,< 0,263
CC(C)(C)C(=O)/C(=C/c1cccc([N+](=O)[O-])c1)n1cncn1,157,8.55
NS(=O)(=O)c1ccc(NC(=O)c2ccc(Cl)c(S(=O)(=O)NCc3ccco3)c2)cc1,< 0,25.5
CCSc1nnc(NC(=O)[C@H](C)N2C(=O)C3CC=CCC3C2=O)s1 (stereo partly specified),< 0,129
O=C(CSc1nc2ccccc2s1)NCc1cc([N+](=O)[O-])ccc1O,48,39.4
CCN1/C(=C/c2ccc3cc(C)ccc3[n+]2C)Sc2ccc3sccc3c21.[I-],180,149
Cc1cc(C)c2c(n1)sc1c(N3CCCCC3)ncnc12,73.3,142
O=C(N/N=C/C=C/c1cccc([N+](=O)[O-])c1)c1ccncc1,17.5,111
CCOc1ccc2oc(C(=O)OCC(=O)NC3CCCCC3)c(C)c2c1,< 0,119
O=C(/C=C\c1cccs1)N1CCN(Cc2ccc3c(c2)OCO3)CC1,135,218
CC(C)Oc1ccc(C(=O)NC(=S)Nc2ccc(CN3CCOCC3)cc2)cc1,2.7,136
O=C(NC1CCCCCCC1)c1ccco1,3.98,234
CN1/C(=C/C(=O)c2cccs2)Sc2ccccc21,48,139
COc1ccc(C)cc1-n1nnnc1SC(C)C(=O)NC1CCCC1 (stereo unspecified),< 0,44.8
CC(C)c1ccc(NC(=S)Nc2ccc3c[nH]nc3c2)cc1,< 0,271
